{
  "source": "patent US9114164B2",
  "about": "(MEXICHEM AMANCO HOLDING S.A. DE C.V., priority 2011, dated 2015)",
  "test": "in vitro aerosolization performance from MDI, Next Generation Impactor (NGI) with HPLC",
  "format": "physicochemical",
  "conditions": "formulated with R-152a rather than R-134a",
  "protocol": "Drug was weighed directly into standard aluminium 19 mL cans (C128, Presspart, Blackburn, UK). The cans were then crimped with a 50 μL valve (Bespak, Kings Lynn, UK). Finally, the propellant was filled into the cans through the valve using a manual Pamasol crimper/filler (Pamasol, Switzerland). High performance liquid chromatography (HPLC) was used to determine drug content following aerosolization studies (see below). The HPLC machine consisted of a pump, column oven, column coupled to a UV detector (all Agilent 1200, Wokingham, Berkshire, UK). A Hypersil BDS C18 column (Fisher, Loughborough, UK, 5 μm, 250×4.6 mm i.d.) was used for high-throughput analysis of samples. The in vitro aerosolization performance of the formulations was studied using a Next Generation Impactor (NGI, Copley Scientific, Nottingham UK), which was connected to a vacuum pump (GE Motors, NJ, USA). Prior to testing, the cups of the NGI system were coated with 1% v/v silicone oil in hexane to eliminate particle bounce. For each experiment, three actuations of the can were discharged into the NGI at 30 L·min^−1 as per pharmacopeia guidelines. […] The mass of drug deposited on each part of the NGI was determined by HPLC. This protocol was repeated three times for the can, following which, the fine particle dose (FPD) and fine particle fraction of the emitted dose (FPFED) were determined.",
  "data": [
    {"substance": "salbutamol sulphate", "values": [
      {"measurement": "emitted dose, comparison in words", "value": "significantly (p<0.05) greater"}
    ]}
  ]
}
